The values below come from US20240317792A1, “CYCLIC DINUCLEOTIDE METAL COMPOUND, AND PREPARATION AND APPLICATION THEREOF” (HANGZHOU XINGAO BIOTECHNOLOGY CO., LTD., priority 2022, published 2024).

The subject of experiment [1] is amyloid plaques in the brains of the AD model mice. Description: Thioflavin S dyeing of amyloid plaque deposition in brains of AD model mice. The experiment is classed as in vivo. Particulars: 10 mg/kg intraperitoneal once every 2 days, 60 days. The text has this:
Experimental materials, purchased from Shanghai Model Organisms Center Inc, were APP/PSI transgenic AD model mice, aged 4 months old and weighing 24-26 g. The AD model mice were randomly divided into 7 groups (10 mice in each group). The 7 groups were listed as follows: A: AD model group, as a negative control group (administration of normal saline); B: cGAMP group, as a positive control group (administration of cyclic dinucleotide); C: [Li2(cGAMP)] group (administration of lithium cyclic dinucleotide prepared in Example 1); D: [Mg(cGAMP)] group (administration of magnesium cyclic dinucleotide prepared in Example 2); E: [Zn(cGAMP)] group (administration of zinc cyclic dinucleotide prepared in Example 5); F: [Mn(cGAMP)] group (administration of manganese cyclic dinucleotide prepared in Example 3); G: [Fe(cGAMP)] group (administration of ferrous cyclic dinucleotide prepared in Example 4). The administration in groups C-G was performed as follows. The powdered cyclic dinucleotide metal compounds were prepared into solutions of required concentration with normal saline, respectively. The administration dosage was 10 mg/kg, and the administration was performed via intraperitoneal injection once every 2 days for 60 consecutive days.
This example conducted a Thioflavin S dyeing experiment including the following steps. 60 days after the drug administration, brain tissues of the AD model mice were taken and subjected to fixing, paraffin embedding, section, dimethylbenzene dewaxing, gradient dehydration with ethanol and washing with tris buffered saline (TBS) three times. 0.3 wt. % of Thioflavin S (dissolved in 50 wt. % of ethanol) was dropped onto the brain tissues. The brain tissues were incubated for 10 min followed by washing with 50 wt. % of ethanol, PBS-washing, shade drying and sealing. A laser scanning confocal microscope (Leica, Germany) was used to detect changes of an amount of amyloid plaque deposition in the brains of the AD model mice.

The subject of experiment [2] is Dendritic cells (DCs) (CD40\CD80\CD86\MHCII). Description: Flow cytometry of dendritic cell activation markers after immunization. The format is in vivo, C57BL/6 ordinary mice. As to conditions: fluorescence intensity (MFI), after 14 days of immunization. From the text:
Experimental animals: C57BL/6 ordinary mice, male, weighing 20-22 grams, 7-8 weeks old, purchased from Shanghai SLAC Laboratory Animal Co. Ltd.
The mice were randomly divided into 8 groups (10 mice in each group). The 8 groups were as listed follows: A: Negative control group (isotype control antibody group); B: blank group; C: cyclic dinucleotide group; D: [Li2(cGAMP)] group; E: [Mg(cGAMP)] group; F: [Zn(cGAMP)] group; G: [Mn(cGAMP)] group; and H: [Fe(cGAMP)] group. Isotype control flow antibody was purchased from eBiosciences, antibody magnetic strain was purchased from Militeny Biotech, and flow cytometry was purchased from BD company. After 14 days of immunization (immunization process was the same as that in the Example 12), spleens and lung tissues of the mice were collected, respectively mashed, filtered through 40 micron pores followed by 1000 rpm of centrifugation for 10 min to solate unlysed immune cells. Dendritic cells (DCs) (CD40\CD80\CD86\MHCII), T(CD8+) cells were separated, and added with corresponding FAC antibodies (diluted with Fluorescence-Activated Cell Sorting (FACS) buffer). Isotype control antibody was used as negative control. After antibody addition, the DCs and T (CD8+) cells were incubate for 1 h, centrifuged and washed by phosphate buffer saline (PBS) followed by analysis by the flow cytometry to sort suitable cells. Fluorescence intensity (MFI) of sorted cells was measured.
(Flow cytometry measures light scatter and fluorescence of single cells or particles in a stream.)

In another experiment the test system is IFN-β. Kind of experiment: IFN-β content in blood induced by the compounds, over time by ELISA. The experiment is classed as in vivo. As to conditions: SD mice serum, sampled 0-24 h, peak of concentration change curve. On the procedure:
Experimental animals: SD mice, weighing 200-220 g, were purchased from Shanghai SLAC Laboratory Animal Co. Ltd.
Main test steps: The SD mice were randomly divided into 7 groups (10 mice in each group). The 7 groups were listed as follows: blank control group (injection of normal saline); cGAMP group; [Li2(cGAMP)] group; [Mg(cGAMP)] group; [Zn(cGAMP)] group; [Mn(cGAMP)] group; and [Fe(cGAMP)] group. At fixed time points (0 h, 1 h, 2 h, 4 h, 6 h, 8 h, 10 h, 12 h, 14 h, 16 h, 20 h, and 24 h), 1 mL of blood of each of the SD mice was taken through ophthalmic vein by a capillary, placed in a 1.5 mL of centrifuge tube followed by centrifugation for 30 min. Upper serum was collected and stored at −80° C. for use. Concentrations of cGAMP and IFN-β in the serum were determined by ELISA kit. Based on IFN-β induced by activation of innate immunity paths of the cGAMP and the cyclic dinucleotide metal compounds, a content of the IFN-β in the blood was detected, and stability and activation activity of immune path of the cGAMP and the cyclic dinucleotide metal compounds were evaluated. Concentration values (including cGAMP and IFN-β) in blood samples of the SD mice in each group were detected by the ELISA kit, and the concentration values and average values at each time point were calculated. A concentration change curve over time was drawn, and a peak of the concentration change curve was obtained.

With `Nc1nc2c(ncn2C2OC3COP(=O)([O-])OC4C(COP(=O)([O-])OC2C3O)OC(n2cnc3c(N)ncnc32)C4O)c(=O)[nH]1.[Mn+2]` (stereo not drawn) [[Mn(cGAMP)], manganese cyclic dinucleotide], the “Average points of amyloid plaque fluorescence intensity in the brain tissues of the AD mice (field of vision)” value (“Average points” below) in experiment [1] is 390 ± 87. Moreover, in experiment [2], the “Spleen CD40” value was found to be 255.9, the “Spleen CD80” value stood at 132.6, the “Spleen CD86” value is listed as 26.3 and the “Spleen MGCII” value amounted to 276.3. For the same compound, the “Time to peak serum IFN-β concentration” value in the experiment on IFN-β was 6.0 h.
Turning to `Nc1nc2c(ncn2[C@@H]2O[C@@H]3COP(=O)([O-])O[C@H]4[C@@H](O)[C@H](n5cnc6c(N)ncnc65)O[C@@H]4COP(=O)([O-])O[C@@H]2[C@@H]3O)c(=O)[nH]1.[Li+].[Li+]` [[Li2(cGAMP)], lithium cyclic dinucleotide], the “Average points” value in experiment [1] stood at 165 ± 75. Besides, in experiment [2], the “Spleen CD40” value is 136.2, the “Spleen CD80” value turned out to be 157.6, the “Spleen CD86” value is on record as 21.7 and the “Spleen MGCII” value was determined as 250.8. The “Time to peak serum IFN-β concentration” value with IFN-β was found to be 5.6 h.
Turning to `Nc1nc2c(ncn2[C@@H]2O[C@@H]3COP(=O)([O-])O[C@H]4[C@@H](O)[C@H](n5cnc6c(N)ncnc65)O[C@@H]4COP(=O)([O-])O[C@@H]2[C@@H]3O)c(=O)[nH]1.[Zn+2]` [[Zn(cGAMP)], zinc cyclic dinucleotide], the “Average points” value in experiment [1] is on record as 360 ± 75. For the same compound, in experiment [2], the “Spleen CD40” value was determined as 264.7, the “Spleen CD80” value was 245.7, the “Spleen CD86” value is reported as 42.6 and the “Spleen MGCII” value turned out to be 424.5. In the experiment with IFN-β, the “Time to peak serum IFN-β concentration” value amounted to 6.2 h.
As for `Nc1nc2c(ncn2[C@@H]2O[C@@H]3COP(=O)(O)O[C@H]4[C@@H](O)[C@H](n5cnc6c(N)ncnc65)O[C@@H]4COP(=O)(O)O[C@@H]2[C@@H]3O)c(=O)[nH]1` [cGAMP, 2′3′-cGAMP, reference compound], the “Average points” value in experiment [1] worked out at 1790 ± 180. Further, in experiment [2], the “Spleen CD40” value is recorded as 120.5, the “Spleen CD80” value is given as 112.1, the “Spleen CD86” value was found to be 16.5 and the “Spleen MGCII” value was 208.1. Moreover, the “Time to peak serum IFN-β concentration” value with IFN-β worked out at 4.0 h.
Regarding `Nc1nc2c(ncn2[C@@H]2O[C@@H]3COP(=O)([O-])O[C@H]4[C@@H](O)[C@H](n5cnc6c(N)ncnc65)O[C@@H]4COP(=O)([O-])O[C@@H]2[C@@H]3O)c(=O)[nH]1.[Mg+2]` [[Mg(cGAMP)], magnesium cyclic dinucleotide], in experiment [1], the “Average points” value is recorded as 480 ± 80. Further, in experiment [2], the “Spleen CD40” value came out at 156.6, the “Spleen CD80” value was found to be 234.6, the “Spleen CD86” value is given as 36.8 and the “Spleen MGCII” value is 338.2. Further, the “Time to peak serum IFN-β concentration” value with IFN-β was 5.9 h.
In the case of `Nc1nc2c(ncn2C2OC3COP(=O)([O-])OC4C(COP(=O)([O-])OC2C3O)OC(n2cnc3c(N)ncnc32)C4O)c(=O)[nH]1.[Fe+2]` (stereo not drawn) [[Fe(cGAMP)], ferrous cyclic dinucleotide], the “Average points” value in experiment [1] worked out at 410 ± 91. For the same compound, in experiment [2], the “Spleen CD40” value turned out to be 236.8, the “Spleen CD80” value is recorded as 134.6, the “Spleen CD86” value is listed as 24.1 and the “Spleen MGCII” value was found to be 247.1. Moreover, in the experiment on IFN-β, the “Time to peak serum IFN-β concentration” value was determined as 5.6 h.
